Experimental data taken from patent US20260374767A1, “FUSED HETEROCYCLIC COMPOUNDS AND USES THEREOF” (Chengdu Zenitar Biomedical Technology Co., Ltd., priority 2022, published 2026).

Experiments:
MDA-MB-436 cells = experiment: Anti-proliferative activity assay, BRCA-mutated MDA-MB-436 cells (CCK8); format: cell-based; details: Homo sapiens, MDA-MB-436, BRCA-mutated, 72 h + 96 h
Source text: (§1) 2. Anti-Proliferative Activity Assay of Cell:

DLD-1 cells = experiment: Anti-proliferative activity assay, BRCA wild-type DLD-1 cells (CCK8); format: cell-based; details: Homo sapiens, 72 h + 96 h
Source text: as §1

[1] = Pharmacokinetic evaluation in Balb/c mice; format: in vivo; details: 1 mg/kg orally
Procedure: Pharmacokinetic Evaluation of Compound in Balb/c Mice
(§2) Experimental purpose: To learn pharmacokinetic profiles of compounds.
Experimental scheme: The pharmacokinetic profile of the compound was investigated by means of administering it intravenously (1 mg kg^−1) and orally (1 mg kg^−1) to Balb/c mice.
Sample preparation: About 0.2 mg of the compound was dissolved in 10 μL DMSO, then a sodium chloride injection was added to make a 0.1 mg mL^−1 solution of the compound for administration.
Three mice were administered the compound intravenously (IV) at a dose of 1 mg kg^−1, and the other three were administered the compound orally (PO) at the same dose. […] The plasma concentration of the drug was quantitatively analyzed with the LC-MS/MS method, and pharmacokinetic parameters were calculated, including the time to peak concentration (Cmax), area under the concentration-time curve (AUC(0-t)), half-life (T1/2), clearance (CL), volume of distribution at steady state (Vdss), and bioavailability (F).

[2] = Pharmacokinetic evaluation in SD rat; format: in vivo; details: SD rats
Procedure: Pharmacokinetic Evaluation of Compound in SD Rat
as §2
Experimental scheme: The pharmacokinetic profile of the compound was investigated by oral intravenous administration in SD rats.
Experimental procedure: The compound, a small amount of DMSO and a sodium chloride injection were added to prepare the final solution for administration. The compound was orally administered to 6 male SD rats. […] The supernatant was collected and transferred into a sample vial for assay. Range of standard curve: 10-10,000 ng mL^−1.

breast cancer MDA-MB-436 [3] = experiment: In-vivo pharmacodynamic study on subcutaneous xenograft tumor model of breast cancer MDA-MB-436; parameters: species or system human tumor cells in NOD/SCID mice
Procedure: Strain: NOD/SCID; Grade: SPF; Source: Beijing Vitron River Bio-technology Co., Ltd.
The cells were washed 3 times with pre-cooled PBS, centrifuged at 300 g for 10 min, collected, re-suspended in PBS, and counted with a blood cell counting chamber, and the cell concentration was adjusted. After cell collection, the cell suspension was pre-cooled on ice. 100 μL of the cell suspension was administered via subcutaneous injection into the dorsal flank of the mice, and the grouped treatment was started when the tumor volume reached 200-300 mm^3.
Animal assay: all viable experimental animals scheduled for assay; Assay time: All animals were weighed before the modeling for test grouping. After modeling, the mice were weighed once every 2 days, and the weight change of the mice was recorded in real time. Effective criteria: tumor volume (TV), relative tumor volume (RTV) and relative tumor growth rate of subcutaneously implanted tumor model. […] The calculation formula of tumor volume (TV) was: TV (mm^3)=a×b2×0.5, where a and b were the long diameter and short diameter, respectively.
The evaluation index for anti-tumor activity was the relative tumor growth rate T/C (%), and the calculation formula was as follows: […]
Where, TRTV is relative tumor volume of the treatment group; CRTV is relative tumor volume of the negative control group. […] The tumor inhibition rate (%) was calculated by the formula below: […]
All raw data within the facility were collected manually according to the experimental scheme and the relevant guidelines of the research institution, or gathered by using a data acquisition system. Manually collected data can be transcribed into software such as Excel for analysis and reporting. The data from each group were quantitative, and the experimental data for each group of animals in the tables were expressed as mean±standard deviation (Mean±SD). In the figures, the experimental data ware described as mean±standard error of the mean (Mean±SEM). Statistical analysis, including t-tests and survival analysis, was performed by using the software such as EXCEL and GraphPad Prism.
After 24 days of administration, the tumor-bearing mice were anesthetized and euthanized. The tumor tissues were dissected, weighed, and photographed, and the tumor inhibition rate was calculated.

gastric cancer PDX = experiment: In-vivo pharmacodynamic study on PDX gastric cancer mice model; parameters: species or system patient-derived tumor in mice
Procedure: 7. In-Vivo Pharmacodynamic Study of Compound 6 on PDX Gastric Cancer Mice model
Experimental procedure: Tumor tissues from gastric cancer patients were used to establish a stable passaged tumor-bearing mice model. In this study, tumor fragments from mice that had been stably passaged three times were used for subcutaneous inoculation. Eight groups were divided for the experiment, with 6 mice in each group. The negative control group (Control) received normal saline at 0.2 mL per mice per administration, given orally once per day; the carboplatin control group (Carboplatin, Car) received 20 mg/kg at 0.2 mL per mice per administration, administered via intraperitoneal injection once every 7 days.

SUM14PT = experiment: In-vivo pharmacodynamic study on subcutaneous xenograft tumor model of breast cancer SUM14PT; parameters: species or system nude mice
Procedure: Experimental procedure: In this study, a mice model was established by subcutaneously inoculating SUM14PT tumor cells. Eight groups were divided for the experiment, with 6 mice in each group. The negative control group (Control) received normal saline at 0.2 mL per mice per administration, given orally once per day; the carboplatin control group (Carboplatin, Car) received 20 mg/kg at 0.2 mL per mice per administration, administered via intraperitoneal injection once every 7 days.

[4] = Body weight in MDA-MB-436 xenograft study; format: in vivo, NOD/SCID mice; details: for Body weight X ± SD, End: 24 days
Procedure: Animal assay: all viable experimental animals scheduled for assay; Assay time: All animals were weighed before the modeling for test grouping. After modeling, the mice were weighed once every 2 days, and the weight change of the mice was recorded in real time. Effective criteria: tumor volume (TV), relative tumor volume (RTV) and relative tumor growth rate of subcutaneously implanted tumor model. The long diameter and short diameter of the tumor was measured with vernier calipers every 2 days, and the anti-tumor effects of the tested drug was dynamically observed. The calculation formula of tumor volume (TV) was: TV (mm^3)=a×b2×0.5, where a and b were the long diameter and short diameter, respectively.
Each group consisted of 6 mice, all of which are administered orally once daily. […] After 24 days of administration, the tumor-bearing mice were anesthetized and euthanized. The tumor tissues were dissected, weighed, and photographed, and the tumor inhibition rate was calculated.

breast cancer MDA-MB-436 [5] = experiment: Challenge experiment on subcutaneous xenograft tumor model of breast cancer MDA-MB-436 (large-volume tumors)
Procedure: Each group consisted of 5 mice and was administered orally once per day. The body weight of the mice was measured every 2 days, and the length and width of the tumors with a vernier caliper.

[6] = 0.03 mg/kg orally once daily, 24 days
[7] = 0.1 mg/kg orally once daily, 24 days
[8] = 0.3 mg/kg orally once daily, 24 days

With `[2H]C([2H])([2H])C([2H])([2H])c1cc2ncc(CN3CC=C(c4ccc(C(=O)NC)nc4)CC3)cc2[nH]c1=O` [Compound 6, 1′-((7-(ethyl-d5)-6-oxo-5,6-dihydro-1,5-naphthyridin-3-yl)methyl)-N-methyl-1′,2′,3′,6′-tetrahy dro-[3,4′-bipyridine]-6-carboxamide] the IC50 (MDA-MB-436 cells) was 0.6 nM, the IC50 (DLD-1 cells) was > 10000 nM and the “Cmax, comparison with AZD5305 and compounds 1, 2, 3, 15, 21” value [1] was “superior to that of the reference compound 5305, as well as compounds 1, 2, 3, 15, and 21”. The “Cmax, comparison with AZD5305, compound 1 and compound 21” value [2] was “superior to those of the reference compound AZD5305, compound 1 and compound 21”, the Tumor inhibition rate (breast cancer MDA-MB-436 [3]; [6]) was 49.77% and the “Tumor weight X ± SD” value (breast cancer MDA-MB-436 [3]; [6]) was 1.09 ± 0.29 g. For the same compound, the “Tumor volume X ± SD, End” value (breast cancer MDA-MB-436 [3]; [6]) was 739.4 ± 308.7 mm^3, the “Tumor volume X ± SD, Start” value (breast cancer MDA-MB-436 [3]; 0.03 mg/kg orally once daily) was 275.0 ± 68.1 mm^3 and the Tumor inhibition rate (breast cancer MDA-MB-436 [3]; [7]) was 86.73%. The “Tumor weight X ± SD” value (breast cancer MDA-MB-436 [3]; [7]) was 0.29 ± 0.09 g, the “Tumor volume X ± SD, End” value (breast cancer MDA-MB-436 [3]; [7]) was 228.0 ± 75.9 mm^3 and the “Tumor volume X ± SD, Start” value (breast cancer MDA-MB-436 [3]; 0.1 mg/kg orally once daily) was 274.7 ± 73.8 mm^3. For the same compound, the “tumor inhibition effect, comparison with AZD5305, compound 1 and Olaparib” value (breast cancer MDA-MB-436 [3]; 0.1 mg/kg vs same dose of AZD5305 and compound 1, vs Olaparib 100 mg/kg) was “superior to that of the reference compound AZD5305 and the compound 1 at the same dose, and significantly better than that of the reference drug Olaparib group (100 mg/kg)”, the Tumor inhibition rate (breast cancer MDA-MB-436 [3]; [8]) was 95.83% and the “Tumor weight X ± SD” value (breast cancer MDA-MB-436 [3]; [8]) was 0.09 ± 0.08 g. For the same compound, the “Tumor volume X ± SD, End” value (breast cancer MDA-MB-436 [3]; [8]) was 71.0 ± 62.5 mm^3, the “Tumor volume X ± SD, Start” value (breast cancer MDA-MB-436 [3]; 0.3 mg/kg orally once daily) was 281.9 ± 67.4 mm^3 and the complete tumor regression (breast cancer MDA-MB-436 [3]; 0.3 mg/kg, at the end of treatment) was 2/6. For the same compound, the “dose dependence among low, medium and high dose groups” value (breast cancer MDA-MB-436 [3]; 0.03, 0.1, 0.3 mg/kg, P<0.001, P<0.01) was “significant dose-dependent differences”, the “inhibitory effects on tumor growth compared to blank control group” value (breast cancer MDA-MB-436 [3]; 24 days, all dose groups) was “significant inhibitory effects on tumor growth” and the “inhibition of tumor growth in gastric cancer PDX model” value (gastric cancer PDX; 3 mg/kg p.o. combined with carboplatin 20 mg/kg i.p.) was “significantly inhibit tumor growth”. For the same compound, the “inhibitory effect on gastric cancer PDX model” value (gastric cancer PDX; combined with carboplatin (20 mg/kg i.p. once every 7 days), 0.3, 1, 3 mg/kg p.o.) was “dose-dependent inhibitory effect”, the “therapeutic efficacy in combination with carboplatin, compared to Olaparib plus carboplatin” value (SUM14PT; 1 mg/kg orally once daily + carboplatin vs Olaparib 100 mg/kg + carboplatin) was “better therapeutic efficacy than Olaparib” and the “anti-tumor efficacy, monotherapy, compared to Olaparib” value (SUM14PT; 0.3 and 1 mg/kg orally once daily vs Olaparib 100 mg/kg orally once daily) was “better anti-tumor efficacy compared to Olaparib”. The “Body weight X ± SD, End” value ([4]; 0.03 mg/kg orally once daily) was 21.6 ± 0.7 g, the “Body weight X ± SD, Start” value ([4]; 0.03 mg/kg orally once daily) was 22.6 ± 0.7 g and the “Body weight X ± SD, End” value ([4]; 0.1 mg/kg orally once daily) was 21.6 ± 0.7 g. The “Body weight X ± SD, Start” value ([4]; 0.1 mg/kg orally once daily) was 22.3 ± 1.0 g, the “Body weight X ± SD, End” value ([4]; 0.3 mg/kg orally once daily) was 22.0 ± 0.9 g and the “Body weight X ± SD, Start” value ([4]; 0.3 mg/kg orally once daily) was 22.3 ± 0.8 g. The “rate of tumor regression, comparison with compounds 1 and 21” value (breast cancer MDA-MB-436 [5]; 1 mg/kg orally once per day) was “faster rate of tumor regression compared to the compounds 1 and 21”, the “tumor regression in large-volume tumors” value (breast cancer MDA-MB-436 [5]; 1 mg/kg orally once per day) was “complete regression of tumors” and the “in-vivo anti-tumor efficacy, comparison with compounds 1 and 21” value (breast cancer MDA-MB-436 [5]; 1 mg/kg, same dose) was “stronger in-vivo anti-tumor efficacy than compounds 1 and 21”.
